Test results reported in ChEMBL document CHEMBL5316264, “Identification of N- and C-3-Modified Laudanosoline Derivatives as Novel Influenza PAN Endonuclease Inhibitors” (J Med Chem, 2023).
≈ marks a conversion by molar mass, not a printed value. Calls of active or inactive are those of the source. No cut-off for these calls is given here.

Tests used:
[1] = Bioavailability in BALB/c nude mouse at 15 mg/kg, ip measured after 24 hrs by LC-MS/MS analysis; type: ADME, organism-based; details: in vivo
[2] = Half life in BALB/c nude mouse at 10 mg/kg, po measured after 24 hrs by LC-MS/MS analysis; type: ADME, organism-based; details: in vivo
[3] = Cytotoxicity against MDCK cells incubated for 48 hrs by MTT assay; type: toxicity, cell-based, Canis lupus familiaris; details: dog
Influenza A virus [4] = experiment: Antiviral activity against influenza A virus A/WSN/33 (H1N1) infected in MDCK cells assessed as reduction in PB2 mRNA level at 20 uM measured after 2 to 5 hrs after viral infection by RT-PCR analysis; type: functional, organism-based; details: time 2-5 hrs
[5] = Metabolic stability in mouse plasma assessed as compound remaining measured after 90 mins by LC-MS/MS analysis; type: ADME, cell-free; details: read-out: Stability
Influenza A virus [6] = experiment: Antiviral activity against influenza A virus H3N2(JX/312) infected in MDCK cells assessed as inhibition of cytopathic effect incubated for 48 hrs by MTT assay; type: functional, organism-based
[7] = Solubility of the compound in FeSSIF; type: physicochemical
Influenza A virus [8] = experiment: Antiviral activity against influenza A virus A/WSN/33 (H1N1) infected in MDCK cells assessed as effect on matrix protein 2 expression at 20 uM pre-infected with virus for 30 mins followed by 1 hr incubation with cells; type: functional, organism-based; details: time 1.5 hrs
[9] = Metabolic stability in mouse liver S9 fraction assessed as half life at 10 uM incubated for 5 mins in presence of NADPH and UDPGA by LC-MS/MS analysis; type: ADME, subcellular
[10] = Clearance in BALB/c nude mouse at 2 mg/kg, iv measured after 24 hrs by LC-MS/MS analysis; type: ADME, organism-based; details: in vivo
Influenza A virus [11] = experiment: Antiviral activity against influenza A virus A/WSN/33 (H1N1) infected in MDCK cells assessed as effect on nucleoprotein expression at 20 uM pre-infected with virus for 30 mins followed by 1 hr incubation with cells; type: functional, organism-based; details: time 1.5 hrs
Influenza A virus [12] = experiment: Antiviral activity against influenza A virus A/WSN/33 (H1N1) infected in MDCK cells assessed as reduction in nucleoprotein expression at 20 uM cells pre-infected with virus for 1 hr followed by compound addition; type: functional, organism-based
Influenza A virus [13] = experiment: Antiviral activity against influenza A virus A/WSN/33 (H1N1) infected in MDCK cells assessed as inhibition of cRNA synthesis pre-infected with virus for 1 hr followed by compound addition and measured after 24 hrs post infection by RT-qPCR analysis; type: functional, organism-based; details: dose 2.5-10 µM
Influenza A virus [14] = experiment: Antiviral activity against influenza A virus A/WSN/33 (H1N1) infected in MDCK cells assessed as reduction in PB2 mRNA level at 20 uM measured upto 10 hrs after viral infection by RT-PCR analysis; type: functional, organism-based
Influenza A virus [15] = experiment: Antiviral activity against influenza A virus H5N1(A/Duck/Guangdong/212/2004) infected in MDCK cells assessed as inhibition of cytopathic effect incubated for 48 hrs by MTT assay; type: functional, organism-based
Influenza A virus [16] = experiment: Antiviral activity against influenza A virus A/WSN/33 (H1N1) infected in MDCK cells assessed as increase in inhibition of luciferase activity pre-infected with virus for 1 hr followed by compound addition and measured after 24 hrs post infection; type: functional, organism-based; details: dose <= 6.0 nM
in vitro = details: dog, MDCK cells
Influenza A virus [17] = experiment: Antiviral activity against Influenza A A/WSN/33 (H1N1) infected in BALB/c mouse assessed as survival ratio at 15 mg/kg/day, ip administered twice daily for 5 days starting from 1 hrs post infection and measured daily for 14 days relative to control; type: functional; details: time 14 day
[18] = AUC (0 to t) in BALB/c nude mouse at 15 mg/kg, ip measured after 24 hrs by LC-MS/MS analysis; type: ADME, organism-based; parameters: time 24 hrs, dose 15 mg/kg, route ip; details: in vivo
[19] = AUC (0 to t) in BALB/c nude mouse at 10 mg/kg, po measured after 24 hrs by LC-MS/MS analysis; type: ADME, organism-based; parameters: time 24 hrs, dose 10 mg/kg, route po; details: in vivo
[20] = Cmax in BALB/c nude mouse at 10 mg/kg, po measured after 24 hrs by LC-MS/MS analysis; type: ADME, organism-based; parameters: dose 10 mg/kg, time 24 hrs, route po; details: in vivo
[21] = Metabolic stability in mouse plasma assessed as compound remaining measured after 60 mins by LC-MS/MS analysis; type: ADME, cell-free; details: read-out: Stability
[22] = Oral bioavailability in BALB/c nude mouse at 10 mg/kg measured after 24 hrs by LC-MS/MS analysis; type: ADME, organism-based; details: in vivo
[23] = Metabolic stability in mouse liver S9 fraction assessed as intrinsic clearance at 10 uM incubated for 5 mins in presence of NADPH and UDPGA by LC-MS/MS analysis; type: ADME, subcellular; details: read-out: CLH
[24] = Aqueous solubility of compound; type: physicochemical
[25] = Half life in BALB/c nude mouse at 15 mg/kg, ip measured after 24 hrs by LC-MS/MS analysis; type: ADME, organism-based; details: in vivo
Influenza A virus [26] = experiment: Antiviral activity against influenza A virus A/WSN/33 (H1N1) infected in MDCK cells assessed as effect on nucleoprotein viral protein expression at 20 uM pretreated with cells for 1 hr followed by viral infection; type: functional, organism-based
[27] = AUC (0 to t) in BALB/c nude mouse at 2 mg/kg, iv measured after 24 hrs by LC-MS/MS analysis; type: ADME, organism-based; parameters: time 24 hrs, dose 2 mg/kg, route iv; details: in vivo
Influenza A virus [28] = experiment: Antiviral activity against Influenza A A/WSN/33 (H1N1) infected in BALB/c mouse at 30 mg/kg/day, ip administered twice daily for 5 days starting from 1 hrs post infection and measured daily for 14 days; type: functional, organism-based; details: time 5.0 day
Influenza A virus [29] = experiment: Antiviral activity against influenza A virus A/WSN/33 (H1N1) infected in MDCK cells assessed as reduction in matrix protein 2 expression at 20 uM cells pre-infected with virus for 1 hr followed by compound addition; type: functional, organism-based
[30] = Metabolic stability in mouse liver microsomes assessed as intrinsic clearance at 10 uM incubated for 5 mins in presence of NADPH by LC-MS/MS analysis; type: ADME, Microsome; details: read-out: CLH
[31] = Cmax in BALB/c nude mouse at 2 mg/kg, iv measured after 24 hrs by LC-MS/MS analysis; type: ADME, organism-based; parameters: time 24 hrs, dose 2 mg/kg, route iv; details: in vivo
[32] = Tmax in BALB/c nude mouse at 10 mg/kg, po measured after 24 hrs by LC-MS/MS analysis; type: ADME, organism-based; details: in vivo
Influenza A virus [33] = experiment: Antiviral activity against influenza A virus A/WSN/33 (H1N1) infected in MDCK cells assessed as reduction in PB2 mRNA level at 20 uM measured after 5 to 8 hrs after viral infection by RT-PCR analysis; type: functional, organism-based; details: time 5-8 hrs
[34] = Cmax in BALB/c nude mouse at 15 mg/kg, ip measured after 24 hrs by LC-MS/MS analysis; type: ADME, organism-based; parameters: time 24 hrs, dose 15 mg/kg, route ip; details: in vivo
Influenza A virus [35] = experiment: Antiviral activity against Influenza A A/WSN/33 (H1N1) infected in BALB/c mouse assessed as protection against body weight loss administered ip twice daily for 5 days starting from 1 hrs post infection and measured daily for 14 days; type: functional, organism-based; details: dose 7.5-30 mg/kg/day, time 5.0 day
Erythrocyte = experiment: Inhibition of hemagglutination in chicken RBC cells infected with Influenza A virus A/WSN/33 (H1N1) assessed as reduction in virus-induced agglutination of erythrocytes at 0.31 to 81 uM pretreated with H5 antigen for 30 mins followed by addition of chicken erythrocytes measured after 1 hr; type: functional, cell-based; details: Gallus gallus, dose 0.31-81 µM, time 1.5 hrs
[36] = Metabolic stability in mouse plasma assessed as compound remaining measured after 120 mins by LC-MS/MS analysis; type: ADME, cell-free; details: read-out: Stability
[37] = Metabolic stability in mouse plasma assessed as compound remaining measured after 30 mins by LC-MS/MS analysis; type: ADME, cell-free; details: read-out: Stability
Influenza A virus [38] = experiment: Antiviral activity against influenza A virus A/WSN/33 (H1N1) infected in MDCK cells assessed as effect on matrix protein 2 expression at 20 uM pretreated with cells for 1 hr followed by viral infection; type: functional, organism-based
[39] = Metabolic stability in mouse liver microsomes assessed as half life at 10 uM incubated for 5 mins in presence of NADPH by LC-MS/MS analysis; type: ADME, Microsome
[40] = Solubility of the compound in FaSSIF; type: physicochemical
[41] = Tmax in BALB/c nude mouse at 15 mg/kg, ip measured after 24 hrs by LC-MS/MS analysis; type: ADME, organism-based; details: in vivo
[42] = Distribution coefficient, logD of compound at pH 7.4; type: physicochemical; details: octanol/water
Influenza A virus [43] = experiment: Antiviral activity against influenza A virus Flu (B/Lee/1940) infected in MDCK cells assessed as inhibition of cytopathic effect incubated for 48 hrs by MTT assay; type: functional, organism-based
Influenza A virus [44] = experiment: Antiviral activity against influenza A virus A/WSN/33 (H1N1) infected in MDCK cells assessed as reduction of ratio of pPOLI-Fluc to Renilla luciferase activity at 2.5 to 10 uM pre-infected with virus for 1 hr followed by compound addition and measured after 24 hrs post infection; type: functional, organism-based; details: dose 2.5-10 µM
[45] = Half life in BALB/c nude mouse at 2 mg/kg, iv measured after 24 hrs by LC-MS/MS analysis; type: ADME, organism-based; details: in vivo

With `CCCOC(=O)[C@@H]1Cc2cc(O)c(O)cc2[C@H](Cc2ccc(O)c(O)c2)N1C(=O)c1ccccc1Cl` as the molecule, how does the bioavailability [1] read?
The bioavailability was 29.5%.

And the half-life [2]?
Its half-life is 49.2 min.

What about the CC50 at 48 h [3] of the same molecule?
Its CC50 at 48 h is 99500 nM.

What about the Activity (Influenza A virus [4]) of the same molecule?
Its Activity is “Active”.

And the remaining at 1.5 h [5]?
Its remaining at 1.5 h is 91.5%.

What about the EC50 (Influenza A virus [6]) of the same molecule?
The EC50 was 760 nM.

And the solubility [7]?
Its solubility is 75.3 µM (≈ 38.6 µg/mL).

And the Activity (Influenza A virus [8])?
The Activity was “inactive”.

And the half-life at 10 µM [9]?
Its half-life at 10 µM is 103 min.

What about the clearance [10] of the same molecule?
The clearance was 53.8 mL/min/kg.

What about the Activity (Influenza A virus [11]) of the same molecule?
The Activity was “inactive”.

What about the Activity (Influenza A virus [12]) of the same molecule?
Its Activity is “Active”.

What about the Activity (Influenza A virus [13]) of the same molecule?
Its Activity is “Dose-Dependent Effect”.

And the Activity (Influenza A virus [14])?
The Activity was “Active”.

And the EC50 (Influenza A virus [15])?
The EC50 was 1120 nM.

And the Activity (Influenza A virus [16])?
The Activity was “Dose-Dependent Effect”.

And the selectivity ratio (in vitro)?
Its selectivity ratio is 113.

What about the Activity (Influenza A virus [17]) of the same molecule?
Its Activity is 60%.

And the AUC(0-t) at 24 h [18]?
Its AUC(0-t) at 24 h is 791 ng·h/mL.

And the AUC(0-t) at 24 h [19]?
The AUC(0-t) at 24 h was 164 ng·h/mL.

What about the Cmax [20] of the same molecule?
The Cmax was 92.2 ng/mL.

And the remaining at 1 h [21]?
The remaining at 1 h was 95.6%.

And the bioavailability [22]?
Its bioavailability is 6.13%.

And the microsomal CLint at 10 µM [23]?
Its microsomal CLint at 10 µM is 9.57 µL/min/mg.

What about the solubility [24] of the same molecule?
Its solubility is 1.62 µM (≈ 0.829 µg/mL).

And the half-life [25]?
The half-life was 64.2 min.

And the Activity (Influenza A virus [26])?
Its Activity is “inactive”.

And the AUC(0-t) at 24 h [27]?
The AUC(0-t) at 24 h was 536 ng·h/mL.

What about the Activity (Influenza A virus [28]) of the same molecule?
Its Activity is “Active”.

What about the Activity (Influenza A virus [29]) of the same molecule?
Its Activity is “Active”.

What about the microsomal CLint at 10 µM [30] of the same molecule?
The microsomal CLint at 10 µM was 134 µL/min/mg.

What about the Cmax [31] of the same molecule?
The Cmax was 1590 ng/mL.

What about the Tmax [32] of the same molecule?
The Tmax was 31.2 min.

And the Activity (Influenza A virus [33])?
Its Activity is “Active”.

What about the Cmax [34] of the same molecule?
Its Cmax is 890 ng/mL.

What about the Activity (Influenza A virus [35]) of the same molecule?
Its Activity is “Dose-Dependent Effect”.

And the inhibition (Erythrocyte)?
Its inhibition is “inactive”.

What about the remaining at 2 h [36] of the same molecule?
The remaining at 2 h was 89.8%.

And the remaining at 0.5 h [37]?
The remaining at 0.5 h was 100%.

And the Activity (Influenza A virus [38])?
The Activity was “inactive”.

And the half-life at 10 µM [39]?
Its half-life at 10 µM is 9.2 min.

And the solubility [40]?
The solubility was 78.2 µM (≈ 40 µg/mL).

What about the Tmax [41] of the same molecule?
Its Tmax is 27 min.

And the logD [42]?
The logD was 3.25.

And the EC50 (Influenza A virus [43])?
Its EC50 is 430 nM.

What about the Activity (Influenza A virus [44]) of the same molecule?
The Activity was “Active”.

What about the half-life [45] of the same molecule?
Its half-life is 19.8 min.
